Key:
E. coli = test: Light-activated killing of bacteria (E. coli); assay type: cell-based; settings: for light-activated killing of bacteria: E. coli; for anti-bacterial activity using cool white light: LuzChem "cool white" light
Text: No killing of bacteria in the dark has yet been observed.
Compound E was applied to a wet wipe surface and also to the surface of a filter for filtration of air or water.

mammal models = settings: in vivo

SMILES | light-activated killing of bacteria (E. coli) | anti-bacterial activity using cool white light (E. coli) | light-activated killing on surfaces (E. coli; applied to wet wipe surface and filter surface for air or water) | killing of bacteria in the dark (E. coli; dark) | activity when surface immersed in E. Coli suspension (E. coli; wet wipe / filter surface immersed in suspension of E. Coli) | toxicity against mammal models (mammal models) | relative reactivity in bacterial killing (E. coli; light-activated)
Cn1cc[n+](CCCCc2ccc(C#Cc3ccc(C#Cc4ccc(OCCC[n+]5ccn(C)c5)cc4)s3)cc2)c1 [Compound E] | excellent | excellent anti-bacterial activity | strong light-activated killing | No killing | activity was retained | no toxicity | –
Cn1cc[n+](CCCOc2ccc(C#Cc3ccc(C#Cc4ccc(OCCC[n+]5ccn(C)c5)cc4)cc3)cc2)c1 [Compound D] | excellent | excellent anti-bacterial activity | – | – | – | – | more reactive than Compound E
